Results: patent US12569563B2, “Selective HDAC6 degraders and methods of use thereof” (DANA-FARBER CANCER INSTITUTE, INC., priority 2019, dated 2026)

Molecular target: T1, HDAC10 (Homo sapiens, UniProt Q969S8)
T1 construct: purchased Reaction Biology
T1 sequence (Q969S8 1-669): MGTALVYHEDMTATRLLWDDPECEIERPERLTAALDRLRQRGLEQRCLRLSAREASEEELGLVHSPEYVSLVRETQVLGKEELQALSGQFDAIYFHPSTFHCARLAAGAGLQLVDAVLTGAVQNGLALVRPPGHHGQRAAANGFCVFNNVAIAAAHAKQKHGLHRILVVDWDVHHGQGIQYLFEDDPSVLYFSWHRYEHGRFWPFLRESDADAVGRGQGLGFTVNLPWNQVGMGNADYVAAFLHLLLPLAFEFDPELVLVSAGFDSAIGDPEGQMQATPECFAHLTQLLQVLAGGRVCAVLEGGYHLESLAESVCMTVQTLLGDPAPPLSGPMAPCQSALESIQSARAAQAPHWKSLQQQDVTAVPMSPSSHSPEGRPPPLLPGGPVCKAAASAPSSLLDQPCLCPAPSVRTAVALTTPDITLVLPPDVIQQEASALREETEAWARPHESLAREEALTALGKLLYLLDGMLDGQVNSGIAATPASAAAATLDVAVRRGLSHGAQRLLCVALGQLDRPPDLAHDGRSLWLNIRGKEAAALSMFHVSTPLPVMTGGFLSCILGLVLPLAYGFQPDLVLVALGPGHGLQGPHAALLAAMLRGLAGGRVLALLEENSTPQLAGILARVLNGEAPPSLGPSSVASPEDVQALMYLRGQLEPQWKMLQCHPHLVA
Test: HDAC assay from Reaction Biology, fluorogenic substrate
Assay type: biochemical
Conditions: 10-dose response curve; read-out: Compound IC50 HDAC10
Protocol: Compounds 1 and 3 were tested in a HDAC assay from Reaction Biology® against 10 different HDACs.
Base Reaction buffer: 50 mM Tris-HCl, pH8.0, 137 mM NaCl, 2.7 mM KCl, and 1 mM MgCl2,
Add fresh: 1 mg/ml BSA, 1% DMSO
Fluorogenic HDAC General Substrate (HDAC1, HDAC2, HDAC3, HDAC6, HDAC10, and HDAC11): 50 μM, Arg-His-Lys-Lys(Ac)-AMC
• (HDAC8 only substrate: 50 μM, Arg-His-Lys(Ac)-Lys(Ac))-AMC Class2A Substrate (HDAC4, HDAC5, HDAC7, and HDAC9): Boc-Lys(trifluoroacetyl)-AMC For SIRTs 1-3, general Class1 HDAC substrate and 500 μM NAD+ For SIRT5, Ac-Lys-succ and 500 μM NAD+ Reaction Procedure Deacetylation Step • 1. Delivered 2× enzyme in wells of reaction plate except in the control wells and added buffer to control wells. • 2. Delivered compounds in 100% DMSO into the enzyme mixture by Acoustic technology (Echo550; nanoliter range). Spin down and pre-incubation. • 3. Delivered 2× Substrate Mixture (Fluorogenic HDAC Substrate and co-factor if applicable) in all reaction wells to initiate the reaction. Spin and shake. • 4. Incubated for 30 min for Class 2A, 1 hr for HDAC1, 2, 3, and 6, and 2 hr for the rest of HDACs and SIRTs at 30° C. with seal. Development Step • 5. Added Developer with Trichostatin A (or Nicotinamide for SIRTs) to stop the reaction and to generate fluorescent color. • 6. The fluorescence that was generated was detected with excitation (Ex) at […] and emission (Em) at 460 nM by the EnVision Multilabel Plate Reader (PerkinElmer®, Santa Clara, CA, USA). • 7. IC50 values, presented in Table 1, were derived from a 10-dose response curve.

IC50: 6.58 µM
SMILES: CN(C(=O)CCCCCCCNc1cccc2c1C(=O)N(C1CCC(=O)NC1=O)C2=O)c1ccc(NC(=O)CCCCCCC(=O)NO)cc1 (stereo not shown) [Compound 3, N^1-(4-(8-((2-(2,6-dioxopiperidin-3-yl)-1,3-dioxoisoindolin-4-yl)amino)-N-methyloctanamido)phenyl)-N^8-hydroxyoctanediamide]
